What was measured:
[1] = molecular target: Diacylglycerol kinase zeta (Homo sapiens, UniProt Q13574); assay: Biochemical DGK IC50 Assays
Description: (§1) Enzymatic reactions of DGKζ, DGKα and DGKδ were performed using ADP-Glo assay with lipid micelle substrate. […] Full length DGKα (D21-10BG, SignalChem) and full length DGKδ (D23-10G, SignalChem) were purchased. […] The resulted product was resuspended in buffer containing 25 mM HEPES pH 7.0, 0.5 mM EDTA and 160 mM Octyl P-D glucopyranoside by vigorous mixing and ultrasonic (IID, Scientz). Final concentration in reaction. […] The inhibition activities testing for the compound disclosed herein were carried out at room temperature in assay buffer containing 50 mM HEPES, 10 mM MgCl2, 0.01% BSA, 0.1 mM Na3VO4, 0.005% Tween-20 and 0.01 mM CaCl2. […] 3 μL 2× enzyme solution was added to wells. […] After 1 hour reaction, 5 μL ADP-Glo reagent (Promga V9101) was added and incubated for 40 minutes. 10 μL Kinase Detection reagent was added and incubated for 30 minutes. Luminescence was measured on a microplate reader (PHERAstar FSX, BMG labtech). The IC50s are calculated based on inhibition of enzyme activity in the presence of increasing concentrations of compounds.

[2] = molecular target: Diacylglycerol kinase alpha (Homo sapiens, UniProt P23743); assay: Biochemical DGK IC50 Assays
Diacylglycerol kinase alpha, sequence (P23743 whole entry): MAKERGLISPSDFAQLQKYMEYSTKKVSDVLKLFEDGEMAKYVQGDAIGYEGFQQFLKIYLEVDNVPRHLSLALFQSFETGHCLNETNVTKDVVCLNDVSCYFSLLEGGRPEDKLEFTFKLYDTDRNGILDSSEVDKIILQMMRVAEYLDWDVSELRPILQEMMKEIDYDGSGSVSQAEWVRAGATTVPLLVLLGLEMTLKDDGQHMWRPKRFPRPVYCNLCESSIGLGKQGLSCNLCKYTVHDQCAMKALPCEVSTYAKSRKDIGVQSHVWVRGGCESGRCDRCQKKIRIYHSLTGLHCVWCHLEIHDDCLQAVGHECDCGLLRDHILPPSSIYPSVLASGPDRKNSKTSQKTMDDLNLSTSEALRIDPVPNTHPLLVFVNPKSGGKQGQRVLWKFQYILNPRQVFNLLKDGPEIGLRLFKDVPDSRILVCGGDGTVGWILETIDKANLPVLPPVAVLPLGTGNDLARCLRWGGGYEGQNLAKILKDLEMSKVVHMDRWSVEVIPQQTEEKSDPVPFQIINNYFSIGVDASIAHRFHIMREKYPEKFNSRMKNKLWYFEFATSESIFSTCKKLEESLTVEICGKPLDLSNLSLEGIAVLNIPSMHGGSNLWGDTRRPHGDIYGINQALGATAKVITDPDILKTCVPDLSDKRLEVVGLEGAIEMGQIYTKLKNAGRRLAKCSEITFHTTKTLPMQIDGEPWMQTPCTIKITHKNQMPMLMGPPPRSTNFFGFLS
Description: as §1

Diacylglycerol kinase zeta, sequence (Q13574 as listed by the source): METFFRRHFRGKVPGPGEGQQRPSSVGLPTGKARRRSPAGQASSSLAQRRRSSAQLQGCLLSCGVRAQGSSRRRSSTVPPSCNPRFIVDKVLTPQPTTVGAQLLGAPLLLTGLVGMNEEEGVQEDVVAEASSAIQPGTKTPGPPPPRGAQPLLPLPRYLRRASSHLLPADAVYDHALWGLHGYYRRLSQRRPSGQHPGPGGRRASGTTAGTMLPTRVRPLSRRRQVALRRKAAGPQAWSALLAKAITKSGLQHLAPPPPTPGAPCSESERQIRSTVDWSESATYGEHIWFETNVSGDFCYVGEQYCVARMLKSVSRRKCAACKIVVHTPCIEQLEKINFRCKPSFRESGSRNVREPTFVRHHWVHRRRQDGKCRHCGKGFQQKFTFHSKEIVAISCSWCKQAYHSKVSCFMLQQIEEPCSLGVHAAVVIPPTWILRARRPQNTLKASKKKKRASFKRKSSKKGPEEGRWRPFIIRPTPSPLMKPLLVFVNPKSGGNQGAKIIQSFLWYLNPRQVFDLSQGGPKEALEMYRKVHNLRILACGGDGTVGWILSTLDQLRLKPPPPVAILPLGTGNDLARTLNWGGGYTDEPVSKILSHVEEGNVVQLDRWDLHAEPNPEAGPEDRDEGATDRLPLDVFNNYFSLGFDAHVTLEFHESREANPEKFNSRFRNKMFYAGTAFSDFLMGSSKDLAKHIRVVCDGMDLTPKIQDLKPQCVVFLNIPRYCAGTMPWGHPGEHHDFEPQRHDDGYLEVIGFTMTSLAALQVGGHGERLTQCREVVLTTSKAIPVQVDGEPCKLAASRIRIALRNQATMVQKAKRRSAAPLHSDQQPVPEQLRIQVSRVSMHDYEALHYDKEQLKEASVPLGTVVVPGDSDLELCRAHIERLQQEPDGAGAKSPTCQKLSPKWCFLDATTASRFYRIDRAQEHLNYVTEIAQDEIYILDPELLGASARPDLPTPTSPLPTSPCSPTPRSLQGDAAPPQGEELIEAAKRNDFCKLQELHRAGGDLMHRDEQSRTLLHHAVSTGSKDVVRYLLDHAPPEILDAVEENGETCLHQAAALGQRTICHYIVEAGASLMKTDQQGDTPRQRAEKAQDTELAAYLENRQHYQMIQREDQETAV

Row | Structure (SMILES) | IC50 [1] | IC50 [2]
1 | CC[C@H]1CN(C(C)c2ccc(N)nc2)[C@H](CC)CN1c1cc(=O)n(C)c2cn(CC#N)nc12 (single isomer, unassigned) [US20250346597, Compound A187b] | > 10000 nM | –
2 | CC[C@@H]1CN(C2CC(=O)N(C)C3=CN(CC#N)NC32)[C@@H](CC)CN1C(C)c1ccc(OCCOC)cc1 (stereo partly drawn) [US20250346597, Compound A11] | 500 nM | 79 nM

Reference: BindingDB's records for patent US20250346597 (Beone Medicines I, 2025)
